Measurements from patent US20100291564A1, “Methods for Detection of Micro-Organisms” (MICROSEN MEDTECH LIMITED, priority 2007, published 2010).

What was measured:
Staph. aureus = assay: Sensitivity of Staph. aureus cells to antibiotic, NAD-dependent ligase detection (LiMA-2, Taq-Man real time PCR); format: cell-based, Staphylococcus aureus; conditions: 10^4 cells added to culture medium, after 4 hours in the presence of antibiotic
Method: FIG. 5. Sensitivity of Staph. aureus cells to antibiotic. […]
Take 1 ml fresh Staph. aureus culture (10^6 cells/μl), spin 8000 rpm 5 min, resuspend pellet in 1 ml deionised water Dilute in a series of 10 fold dilutions down to 10^2 cells/μl
After ligation step above add 2 μl of following nuclease mix to each tube:
Add 2 μl to PCR mastermix, cycles were:
The detection limit in this experiment was estimated to be between 10 and 100 cells.

E. coli = assay: Drug susceptibility testing by NAD-dependent ligase mediated PCR assay; format: cell-based, Escherichia coli; conditions: for Cycle at which PCR was positive: plus gentamicin 50 μg/ml
Text: The PCR signal generated is related to the number of ligated molecules of the DNA substrate which in turn is related to the number of ligase molecules present. In turn, the number of molecules of ligase present is dependent on the viability of the bacterium. Upon culture of a given bacterium, if the bacteria are healthy, growing and increasing in number there will be progressively more ligase present which will generate more ligation and more PCR signal. If the bacteria are unhealthy and non-viable or dying there will be no increase in ligase on culture and the number of ligase molecules might even be expected to decrease which will be reflected in the amount of ligation and PCR signal generated. In this example we have tested the susceptibility of the organism to an antibiotic. By culturing in the presence and absence of antibiotic we can compare the signal generated from the bacterial ligase at different time points. Additionally, the experiment can be performed with and without the addition of the NAD+ cofactor. In the presence of added cofactor the ligase can cycle through many ligation steps. In the absence of added cofactor the ligase must depend on endogenous bacterial NAD+ for ligation. These two conditions, therefore are two different measures of the health of the bacterial cell
1. 10 ml of media (LB broth) containing 50 μg/ml gentamicin was inoculated with […] E. coli bacteria/ml and incubated for 3 hours. At 30 min time points 1 ml of the culture was removed and placed on ice until completion of the time course.
2. The bacteria were then pelleted by centrifugation at 6,000×g for 5 min and the supernatant removed.
3. The protocol from this stage was identical to steps 3 to 8 in example 1 except that the ligase reaction was performed with and without added NAD+.

Compound: Cc1onc(-c2ccccc2)c1C(=O)N[C@@H]1C(=O)N2[C@@H]1SC(C)(C)[C@@H]2C(=O)O [oxacillin]
- fall of NAD-dependent ligase content (Staph. aureus): > 2×10^3 fold

Compound: gentamicin
- Cycle at which PCR was positive (E. coli; With added NAD+, time 0 min): 26.2
- Cycle at which PCR was positive (E. coli; With added NAD+, time 30 min): 25.1
- Cycle at which PCR was positive (E. coli; With added NAD+, time 60 min): 25.7
- Cycle at which PCR was positive (E. coli; With added NAD+, time 90 min): 26.2
- Cycle at which PCR was positive (E. coli; With added NAD+, time 120 min): 27.2
- Cycle at which PCR was positive (E. coli; With added NAD+, time 150 min): 26.8
- Cycle at which PCR was positive (E. coli; With added NAD+, time 180 min): 26.3
- Cycle at which PCR was positive (E. coli; Without added NAD+, time 0 min): 29.5
- Cycle at which PCR was positive (E. coli; Without added NAD+, time 30 min): 29.4
- Cycle at which PCR was positive (E. coli; Without added NAD+, time 60 min): 31.6
- Cycle at which PCR was positive (E. coli; Without added NAD+, time 90 min): 30.1
- Cycle at which PCR was positive (E. coli; Without added NAD+, time 120 min): 30.3
- Cycle at which PCR was positive (E. coli; Without added NAD+, time 150 min): 29.4
- Cycle at which PCR was positive (E. coli; Without added NAD+, time 180 min): 30.1
- signal from the bacterial ligase (E. coli; in the presence of gentamicin 50 μg/ml, incubation up to 3 hours): does not increase with incubation
